Data on two molecules can be found in publication PMC10688098, “Intrinsic Solubility of Ionizable Compounds from pKa Shift” (ACS Omega, 2023).

Converted amounts (≈) assume the structure as drawn.

Type in all cases: physicochemical
A short description of series [1]: Intrinsic pKa and intrinsic solubility from the model applied to literature titration data (Bjerrum plots).
Source text: Since raw data formats were unavailable, we used WebPlotDigitizer to extract data from Bjerrum plots.[28],[29] Additionally, we used the equation for bound hydrogen ions per substance molecule to reverse engineer equivalent titrant added during the titration.[30] According to the model, any protonizable compound exists in three forms, the charged-dissolved form, the uncharged-dissolved form, and the uncharged-nondissolved (aggregated) form. We use the concept of 'the active concentration of an aggregate (precipitate)'. This concentration is mathematically equal to the amount of aggregate divided by volume of solution. This aggregate remains undissolved and is at an equilibrium (thermodynamic) concentration. The uncharged form of the ICPD47 compound exists in two forms, the dissolved form [ROH] and the aggregated form [ROH↓]. Furthermore, the total concentration of the ICPD47 compound, C, is equal to the sum of all three forms of the compound and includes the deprotonated concentration [RO^-]: [drawing 1] 1 Here we assume that the deprotonated form is highly soluble and there is no need to consider the aggregated form of the negatively charged deprotonated compound. […] A is inversely proportional to the intrinsic solubility, S, and is expressed and rearranged to [drawing 7] 7 [drawing 8] […] 12 cannot be expressed as a function pH = f([Hadd^+]), but may be solved numerically.
Series [2] can be described thus: Chemical stability in acid and base. The settings on record: pH 2.0 to 12.0.
Series [3] can be described thus: Solubility at near-neutral pH. The following applies: aqueous buffer. Here is the method: (§1) The compound ICPD47 is sparingly soluble at near-neutral pH. Solubility is approximately equal to or below 100 μM. The solutions exceeding the solubility limit (0.25, 0.5, and 1.0 mM) were prepared by adding 1.5 equiv of NaOH (0.375 0.75, and 1.5 mM, respectively; 0.5 equiv excess), thus shifting the compound to its highly soluble deprotonated negatively charged form. The deprotonated solutions were titrated with […] more concentrated HCl (2.5 mM; 5.0 mM; and 10 mM) containing the same concentration of DMSO as in the analyte solution (2.0% in all solutions).

Series [4] can be described thus: Intrinsic pKa and intrinsic solubility of ICPD47 from pKa shift (spectrophotometric and potentiometric titration, linked ionization-dissolution model). The following applies: 25 °C, pKa shift model. The method, then: as §1
The pH titration was performed with a 250 μL syringe that was filled with the titrant (acid), and the needle was placed into the sample cell filled with 2.5 mL of analyzed solution. A pH microelectrode was also inserted into the same cell. […] The analyzed solution was mixed after each injection using a pipet. The pH was measured potentiometrically using a Mettler Toledo MP220 pH meter with a combined glass InLab Microelectrode. […] The pH measurements were recorded only when the pH measurement instability was less than 0.01 min^–1. […]
The ICPD47 compound solutions were prepared in the universal buffer of different pH values from 4.5 to 10.5 at every 0.5 pH unit. […] The absorbance was measured with an Agilent 8453 UV–vis spectrophotometer using the same 2.5 mL cuvette as for potentiometric titration. […]

For orientation: pKa means the pH at which an ionisable group is half protonated. As usually defined, the solubility is how much of the substance goes into solution per volume. In series [1] (model fit to literature titration data, value at infinite dilution), `CN(C)CCCOc1nn(Cc2ccccc2)c2ccccc12` [benzydamine] gave a pKa of 9.6. In addition, the solubility in series [1] (water, thermodynamic from solid, model fit to literature titration data (ref 5, 22, 23)) was determined as 270 µM (≈ 83.5 µg/mL).
For `CCOc1ccc(-c2snnc2-c2cc(Cl)c(O)cc2O)cc1` [ICPD47], the “Chemical stability in acid and base” value in series [2] was “chemically stable in acid and base”. Further, the solubility is not above 100 µM in series [3] and approximately 75 µM in series [4] (aqueous buffer, kinetic from dmso stock, aqueous universal buffer / titration with DMSO, read-out: Intrinsic solubility of the uncharged form). Besides, in series [4] (read-out: Intrinsic pKa (model estimate)), the pKa was 6.85.
